Measurements: patent publication US8410065B2, “Macrolides and their use” (Basilea Pharmaceutica AG, priority 2008, dated 2013)

System: human PDE4
Experiment: PDE4 inhibition, in vitro enzymatic IMAP FP assay
Type: biochemical
Details: PDE4 partially purified from undifferentiated human monocytic cells (U-937); fluorescently labeled cAMP substrate; 90 minutes at room temperature; fluorescence polarization
Experimental: PDE4 specifically hydrolyzes cAMP and releases the product AMP. The potency of PDE inhibition by said agents is determined in an in vitro enzymatic assay. The assay is commercially available (IMAP™ FP assay Molecular Devices Corp. (MDS)) and is optimized for the use of human PDE4. Fluorescently labeled cAMP is hydrolyzed by PDE4 and in a second step, binding of labeled product to a large binding partner allowed product detection by fluorescence polarization (FP) measurements.
PDE4 is partially purified from undifferentiated human monocytic cells (U-937) according to Thorpy et al. 1992 (J. Pharmacol. Exp. Ther. 263: 1195). […] In addition, PDE4 preparations are validated by inhibition studies with PDE4-specific and unspecific PDE inhibitors.
Stock solutions of test compounds are made in DMSO and diluted in assay buffer (10 mM Tris-HCl, 10 mM MgCl2, 0.1% BSA 0.05% NaN3, pH 7.2) to the desired concentrations. The solutions used in the assay contained test compound in assay buffer with 2% DMSO.
10 μl of substrate (at a concentration recommended by the manufacturer) are mixed with 5 μl of appropriately diluted PDE and 5 μl of test compound solution. 5 μl of reaction buffer with 2% DMSO are used for control reactions. […] After incubation for 90 minutes at room temperature, 60 μl of binding reagent are added as specified by the manufacturer. Binding is allowed to proceed for 30 minutes and fluorescence polarization is measured. Dose dependence of PDE inhibition is measured by assaying dilution series of test compounds in duplicates. IC50 values are determined from the measured activities by curve fitting.

| Structure (SMILES) | IC50 |
| --- | --- |
| CC[C@H]1OC(=O)[C@H](C)[C@@H](O[C@H]2C[C@@](C)(OC)[C@@H](O)[C@H](C)O2)[C@H](C)[C@@H](O[C@@H]2O[C@H](C)C[C@H](N(C)C(C)=O)[C@H]2O)[C@](C)(OC)C[C@@H](C)C(=O)[C@H](C)[C@H]2[C@H](SCCN(Cc3c(Cl)cncc3Cl)c3ccc(OC)c(OC4CCCC4)c3)C(=O)O[C@@]21C [Example 10] | 31 nM |
| CC[C@H]1OC(=O)[C@H](C)[C@@H](O)[C@H](C)[C@@H](O[C@@H]2O[C@H](C)C=C[C@H]2O)[C@](C)(OC)C[C@@H](C)C(=O)[C@H](C)[C@H]2[C@H](SCCn3cnc4c(N)ncnc43)C(=O)O[C@@]21C (stereo in doubt) [Example 1] | 4800 nM |
| CC[C@H]1OC(=O)[C@H](C)[C@@H](O[C@H]2C[C@@](C)(OC)[C@@H](O)[C@H](C)O2)[C@H](C)[C@@H](O[C@@H]2O[C@H](C)C[C@@H](OC)[C@@H]2N(C)C)[C@](C)(OC)C[C@@H](C)C(=O)[C@H](C)[C@H]2[C@H](SCCN(Cc3c(Cl)cncc3Cl)c3ccc(OC)c(OC4CCCC4)c3)C(=O)O[C@@]21C (stereo in doubt) [Example 7] | 140 nM |
| CC[C@H]1OC(=O)[C@H](C)[C@@H](O[C@H]2C[C@@](C)(OC)[C@@H](O)[C@H](C)O2)[C@H](C)[C@@H](O[C@@H]2O[C@H](C)C[C@@H](OC)[C@@H]2N(C)C)[C@](C)(OC)C[C@@H](C)C(=O)[C@H](C)[C@H]2[C@H](SCCn3cnc4c(N)ncc(C(=O)Nc5c(Cl)cncc5Cl)c43)C(=O)O[C@@]21C (stereo in doubt) [Example 5] | 110 nM |
| CC[C@H]1OC(=O)[C@H](C)[C@@H](O)[C@H](C)[C@@H](O[C@@H]2O[C@H](C)C[C@@H](N3CCOCC3)[C@@H]2N(C)C)[C@](C)(OC)C[C@@H](C)C(=O)[C@H](C)[C@H]2[C@H](SCCN(Cc3c(Cl)cncc3Cl)c3ccc(OC)c(OC4CCCC4)c3)C(=O)O[C@@]21C (stereo in doubt) [Example 12] | 220 nM |
| CC[C@H]1OC(=O)[C@H](C)[C@@H](O[C@H]2C[C@@](C)(OC)[C@@H](O)[C@H](C)O2)[C@H](C)[C@@H](O[C@@H]2O[C@H](C)C[C@H](N(C)CC(C)C)[C@H]2O)[C@](C)(OC)C[C@@H](C)C(=O)[C@H](C)[C@H]2[C@H](SCCn3cnc4c(N)ncnc43)C(=O)O[C@@]21C (stereo in doubt) [Example 2] | 2800 nM |
| CC[C@H]1OC(=O)[C@H](C)[C@@H](O)[C@H](C)[C@@H](O[C@@H]2O[C@H](C)C[C@H](N(C)C)[C@H]2OC)[C@](C)(OC)C[C@@H](C)C(=O)[C@H](C)[C@H]2[C@H](SCCN(Cc3c(Cl)cncc3Cl)c3ccc(OC)c(OC4CCCC4)c3)C(=O)O[C@@]21C (stereo in doubt) [Example 9] | 300 nM |
| CC[C@H]1OC(=O)[C@H](C)[C@@H](O[C@H]2C[C@@](C)(OC)[C@@H](O)[C@H](C)O2)[C@H](C)[C@@H](O[C@@H]2O[C@H](C)C[C@H](N(C)C(C)=O)[C@H]2O)[C@](C)(OC)C[C@@H](C)C(=O)[C@H](C)[C@H]2[C@H](SCCOc3cc(C(=O)Nc4c(Cl)cncc4Cl)ccc3OC)C(=O)O[C@@]21C (stereo in doubt) [Example 14] | 2.7 nM |
| CC[C@H]1OC(=O)[C@H](C)[C@@H](O[C@H]2C[C@@](C)(OC)[C@@H](O)[C@H](C)O2)[C@H](C)[C@@H](O[C@@H]2O[C@H](C)C[C@H](N(C)C(=O)N3CCOCC3)[C@H]2O)[C@](C)(OC)C[C@@H](C)C(=O)[C@H](C)[C@H]2[C@H](SCCCOc3cc(C(=O)Nc4c(Cl)cncc4Cl)ccc3OC)C(=O)O[C@@]21C (stereo in doubt) [Example 16] | 220 nM |
| CC[C@H]1OC(=O)[C@H](C)[C@@H](O)[C@H](C)[C@@H](O[C@@H]2O[C@H](C)C[C@@H](OC)[C@@H]2N(C)C)[C@](C)(OC)C[C@@H](C)C(=O)[C@H](C)[C@H]2[C@H](SCCN(Cc3c(Cl)cncc3Cl)c3ccc(OC)c(OC4CCCC4)c3)C(=O)O[C@@]21C (stereo in doubt) [Example 8] | 220 nM |
| CC[C@H]1OC(=O)[C@H](C)[C@@H](O[C@H]2C[C@@](C)(OC)[C@@H](O)[C@H](C)O2)[C@H](C)[C@@H](O[C@@H]2O[C@H](C)C[C@H](N(C)CC(C)C)[C@H]2O)[C@](C)(OC)C[C@@H](C)C(=O)[C@H](C)[C@H]2[C@H](SCCN(C(=O)c3ccncc3)c3ccc(OC)c(OC4CCCC4)c3)C(=O)O[C@@]21C (stereo in doubt) [Example 3] | 13600 nM |
| CC[C@H]1OC(=O)[C@H](C)[C@@H](O[C@H]2C[C@@](C)(OC)[C@@H](O)[C@H](C)O2)[C@H](C)[C@@H](O[C@@H]2O[C@H](C)C[C@@H](OC)[C@@H]2N(C)C)[C@](C)(OC)C[C@@H](C)C(=O)[C@H](C)[C@H]2[C@H](SCCN(Cc3ccncc3)c3ccc(OC)c(OC4CCCC4)c3)C(=O)O[C@@]21C (stereo in doubt) [Example 6] | 1400 nM |
